Test results from US20170158697A1, “Protein Kinase Inhibitors” (Pharmascience Inc., priority 2013, published 2017).

Experiments:
[1] = target: T1, histidine tagged recombinant human full-length Bruton Agammaglobulinemia Tyrosine Kinase (Btk) (Homo sapiens, UniProt Q06187); test: Btk kinase inhibition assay, Method A (fluorescence polarization, KinEASE FP Fluorescein Green); type: biochemical; conditions: 10 μM ATP, 250 μM substrate, 60 minutes, Ki by Cheng-Prusoff from IC50, read-out: Inhibition of Btk, EC50 (nM) (legend: Ki)
T1 construct: histidine tagged recombinant human full-length Bruton Agammaglobulinemia Tyrosine Kinase (Btk); His tag
Procedure: Fluorescence polarization-based kinase assays were performed in 384 well-plate format using histidine tagged recombinant human full-length Bruton Agammaglobulinemia Tyrosine Kinase (Btk) and a modified protocol of the KinEASE™ FP Fluorescein Green Assay supplied from Millipore®. Kinase reaction were performed at room temperature for 60 minutes in presence of 250 μM substrate, 10 μM ATP and variable test article concentrations. The reaction was stopped with EDTA/kinease detection reagents. Phosphorylation of the substrate peptide was detected by fluorescence polarization measured with a Tecan 500 instrument. From the dose-response curve obtained, the IC50 was calculated using Graph Pad Prisms® using a non linear fit curve. The Km for ATP on each enzyme was experimentally determined and the Ki values calculated using the Cheng-Prusoff equation (see: Cheng Y, Prusoff W. H. (1973) Relationship between the inhibition constant (K1) and the concentration of inhibitor which causes 50% inhibition (I50) of an enzymatic reaction”. Biochem Pharmacol 22 (23): 3099-108). ki values are reported in Tables 2a and 2b: […]

[2] = test system: splenocytes from CD1 mice; test: Splenic cell proliferation assay (anti-IgM stimulated, Cell Titer-Glo); type: cell-based; conditions: Splenocyte; mouse splenocytes, 2.5 ug/ml anti-IgM F(ab')2 for 72 h; read-out: Inhibition of splenic cell proliferation, EC50
Procedure: Splenic Cell Proliferation Assay
Proliferation of splenocytes in response to anti-IgM can be blocked by inhibition of Btk. Splenocytes were obtained from 6 week old male CD1 mice (Charles River Laboratories Inc.). Mouse spleens were manually disrupted in PBS and filtered using a 70 um cell strainer followed by ammonium chloride red blood cell lysis. Cells were washed, resuspended in Splenocyte Medium (HyClone RPMI supplemented with 10% heat-inactivated FBS, 0.5× non-essential amino acids, 10 mM HEPES, 50 uM beta mercaptoethanol) and incubated at 37° C., 5% CO2 for 2 h to remove adherent cells. Suspension cells were seeded in 96 well plates at 50,000 cells per well and incubated at 37° C., 5% CO2 for 1 h. Splenocytes were pre-treated in triplicate with 10,000 nM curves of Formula I compounds for 1 h, followed by stimulation of cell proliferation with 2.5 ug/ml anti-IgM F(ab′)2 (Jackson ImmunoResearch) for 72 h. Cell proliferation was measured by Cell Titer-Glo Luminescent Assay (Promega). EC50 values (50% proliferation in the presence of compound as compared to vehicle treated controls) were calculated from dose response compound curves using GraphPad Prism Software.

human BTK kinase (hBTK) = target: T2, human BTK kinase (hBTK) (Homo sapiens, UniProt Q06187); test: Btk kinase inhibition assay, Method B (KinaseProfiler radiometric protein kinase assay, Eurofins); type: biochemical; conditions: 40 minutes, 250 μM substrate
T2 construct: purchased Eurofins Pharma Discovery Services UK Limited (assay service)
Procedure: In vitro potency of selected compound was defined against human BTK kinase (hBTK) using KinaseProfiler radiometric protein kinase assays performed at Eurofins Pharma Discovery Services UK Limited.
hBTK kinase is diluted in buffer and all compounds were prepared to 50× final assay concentration in 100% DMSO. This working stock of the compound was added to the assay well as the first component in the reaction, followed by the remaining components as detailed in the assay protocol listed above. The reaction was initiated by the addition of the MgATP mix. The kinase reaction was performed at room temperature for 40 minutes in presence of 250 μM substrate, 10 mM MgAcetate, [γ-33P-ATP] (specific activity approx. 500 cpm/pmol, concentration as required) and variable test article concentrations. The ATP concentrations in the assays were with 15 μM of the apparent. The reaction was stopped by the addition of 3% phosphoric acid solution. 10 μL of the reaction is then spotted onto a P30 filtermat and washed three times for 5 minutes in 75 mM phosphoric acid and once in methanol prior to drying and scintillation counting. In addition positive control wells contain all components of the reaction, except the compound of interest; however, DMSO (at a final concentration of 2%) were included in these wells to control for solvent effects as well as blank wells contain all components of the reaction, with a reference inhibitor replacing the compound of interest. This abolishes kinase activity and establishes the base-line (0% kinase activity remaining). The potency of each compound was reported by estimating the EC50.

T2 sequence (Q06187 whole entry): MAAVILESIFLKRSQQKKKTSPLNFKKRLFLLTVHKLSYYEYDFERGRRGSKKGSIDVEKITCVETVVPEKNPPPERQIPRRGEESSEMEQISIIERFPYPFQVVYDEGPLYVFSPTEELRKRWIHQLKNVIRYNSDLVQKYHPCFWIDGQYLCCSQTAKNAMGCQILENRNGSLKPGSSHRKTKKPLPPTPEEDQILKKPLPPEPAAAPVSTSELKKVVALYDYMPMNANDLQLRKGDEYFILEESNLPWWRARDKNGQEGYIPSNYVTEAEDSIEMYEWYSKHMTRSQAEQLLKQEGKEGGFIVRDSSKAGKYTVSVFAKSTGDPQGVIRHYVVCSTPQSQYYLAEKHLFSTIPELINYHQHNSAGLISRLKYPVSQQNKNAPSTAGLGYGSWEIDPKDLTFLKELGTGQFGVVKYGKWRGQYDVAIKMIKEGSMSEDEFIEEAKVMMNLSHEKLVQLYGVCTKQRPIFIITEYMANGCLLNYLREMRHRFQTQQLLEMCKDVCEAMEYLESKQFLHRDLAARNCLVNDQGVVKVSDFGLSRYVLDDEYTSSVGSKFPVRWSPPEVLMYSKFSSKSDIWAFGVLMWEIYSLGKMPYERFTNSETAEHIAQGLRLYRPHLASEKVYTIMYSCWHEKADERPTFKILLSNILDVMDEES
T1 sequence (Q06187 whole entry): as above

Row | Compound | Ki [1] [nM] | EC50 [2] [nM] | EC50 (human BTK kinase (hBTK)) [nM]
1 | Cc1ncc(COc2cc(F)cc(Oc3ccc(-c4cn(C[C@@H]5CCCN5)c5ncnc(N)c45)cc3)c2)cn1 [Compound 8] | < 100 | 100 to 1000 | 
2 | Cc1ncc(COc2cc(F)cc(Oc3ccc(-c4cn(C(C)C)c5ncnc(N)c45)cc3)c2)s1 [Compound 1] | < 100 | < 100 | 
3 | Cc1ncc(COc2cc(F)cc(Oc3ccc(-c4cn(C5CCOCC5)c5ncnc(N)c45)cc3)c2)cn1 [Compound 6] | < 100 | < 100 | 
4 | Cc1ncc(COc2cc(F)cc(Oc3ccc(-c4cn([C@H]5C[C@@H](N6CCOCC6)C5)c5ncnc(N)c45)cc3)c2)cn1 [Compound 23] | < 100 | < 100 | 
5 | Cc1ccc(COc2cc(F)cc(Oc3ccc(-c4cn(C(C)C)c5ncnc(N)c45)cc3)c2)cn1 [Compound 2] | < 100 | < 100 | 
6 | CC(C)n1cc(-c2ccc(Oc3cc(F)cc(OCc4cnc(CO)nc4)c3)cc2)c2c(N)ncnc21 [Compound 20] |  | 100 to 1000 | < 100
7 | Cc1ncc(COc2cc(F)cc(Oc3ccc(-c4cn([C@H]5C[C@@](C)(O)C5)c5ncnc(N)c45)cc3)c2)cn1 [Compound 18] | < 100 | < 100 | 
8 | Cc1ncc(COc2cc(F)cc(Oc3ccc(-c4cn(C(C)(C)CO)c5ncnc(N)c45)cc3)c2)cn1 [Compound 24] |  | < 100 | 100 to 1000
9 | CC(C)n1cc(-c2ccc(Oc3cc(F)cc(OCc4ccc(CO)nc4)c3)cc2)c2c(N)ncnc21 [Compound 21] |  | < 100 | < 100
10 | CC(=O)N1CCC[C@@H](n2cc(-c3ccc(Oc4cc(F)cc(OCc5cnc(C)nc5)c4)cc3)c3c(N)ncnc32)C1 [Compound 25] |  | < 100 | < 100
11 | Cc1ncc(COc2cc(F)cc(Oc3ccc(-c4cn(C5CCOCC5)c5ncnc(N)c45)cc3)c2)s1 [Compound 5] | < 100 | < 100 | 
12 | CC(=O)N1CCC[C@@H]1Cn1cc(-c2ccc(Oc3cc(F)cc(OCc4cnc(C)nc4)c3)cc2)c2c(N)ncnc21 [Compound 22] |  | 100 to 1000 | < 100
13 | Cc1ncc(COc2cc(F)cc(Oc3ccc(-c4cn(C(C)C)c5ncnc(N)c45)cc3)c2)cn1 [Compound 3] | < 100 | < 100 | 
14 | CC(C)n1cc(-c2ccc(Oc3cc(F)cc(OCc4cnc(C5CC5)nc4)c3)cc2)c2c(N)ncnc21 [Compound 14] | < 100 | 100 to 1000 | 
15 | CC(C)n1cc(-c2ccc(Oc3cc(F)cc(OCc4cncnc4)c3)cc2)c2c(N)ncnc21 [Compound 17] | < 100 | < 100 | 
16 | Cc1ncc(COc2cccc(Oc3ccc(-c4cn(C(C)C)c5ncnc(N)c45)cc3)c2F)cn1 [Compound 19] |  | < 100 | < 100
17 | Cc1ncc(COc2cc(F)cc(Oc3ccc(-c4cn(C[C@H]5CCCN5)c5ncnc(N)c45)cc3)c2)cn1 [Compound 10] | 100 to 1000 | 100 to 1000 | 
18 | CC(C)n1cc(-c2ccc(Oc3cc(F)cc(OCc4ccccc4)c3)cc2)c2c(N)ncnc21 [Compound 9] | < 100 | 100 to 1000 | 
19 | Cc1ccc(COc2cc(F)cc(Oc3ccc(-c4cn(C5CCOCC5)c5ncnc(N)c45)cc3)c2)cn1 [Compound 4] | < 100 | < 100 | 
20 | Cc1ncc(COc2cc(F)cc(Oc3ccc(-c4cn([C@H]5C[C@@H](O)C5)c5ncnc(N)c45)cc3)c2)cn1 [Compound 26] |  | < 100 | < 100
21 | Cc1ncc(COc2ccc(F)c(Oc3ccc(-c4cn(C(C)C)c5ncnc(N)c45)cc3)c2)cn1 [Compound 11] | < 100 | 100 to 1000 | 
22 | Cc1ncc(COc2cc(Oc3ccc(-c4cn(C(C)C)c5ncnc(N)c45)cc3)ccc2F)cn1 [Compound 15] | 100 to 1000 | 100 to 1000 | 
23 | Cc1ncc(COc2cc(F)cc(Oc3ccc(-c4cn(C[C@@H]5CCCN5)c5ncnc(N)c45)cc3)c2)s1 [Compound 7] | < 100 | 100 to 1000 | 
24 | CCCc1ncc(COc2cc(F)cc(Oc3ccc(-c4cn(C(C)C)c5ncnc(N)c45)cc3)c2)cn1 [Compound 12] | < 100 | 100 to 1000 | 
25 | CC(C)c1ncc(COc2cc(F)cc(Oc3ccc(-c4cn(C(C)C)c5ncnc(N)c45)cc3)c2)cn1 [Compound 13] | < 100 | 100 to 1000 | 
